In patent publication US4372890A, “Platinum compound” (Kureha Kagaku Kogyo Kabushiki Kaisha, priority 1980, dated 1983):

Assays:
mouse P-388 leukemia = assay: Antitumor effect to mouse P-388 leukemia (ILS); assay type: in vivo; settings: 5 mg/kg, intraperitoneal, once a day for 5 days, P-388 in CDF1 mice
Procedure: Antitumor effects of the products to mouse P-388 leukemia were tested.
(§1) P-388 ascites cells obtained by a successive cultivation in DBA/2 mice were transplanted by the route of intraperitoneal injection into CDF1 mice (10 mice in one group) at a rate of 1×10^6 /mouse. From 24 hours after the transplantation, a solution of each compound in physiological saline solution was injected once a day for 5 days as 5 times by the route of intraperitoneal injection. Each average survival days (T) of the administered group and each average survival days (C) of control group were measured to calculate each percentage increase in life span (ILS(%))

[1] = Weight decrease and kidney cell damage in the mice of the P-388 test; assay type: in vivo, CDF1 mice; settings: 5 mg/kg intraperitoneal for 5 days
Procedure: as §1

[2] = Solubility of the products of the Examples in water and organic solvents; assay type: physicochemical

solubility in benzene and chloroform ([2]; benzene and chloroform)	solubility in ethanol ([2]; ethanol)	solubility in methanol ([2]; methanol)	solubility in water ([2]; water)	SMILES	ILS (percentage increase in life span, T/C×100) (mouse P-388 leukemia)	kidney cell damage [1]	weight decrease [1]
–	–	–	–	N.N.[Cl][Pt][Cl] [Compound No. 5, cis-[diaminedichloroplatinum (II)]]	180%	kidney cell damage were observed for all of 10 mice	remarkable weight decrease
insoluble	soluble	soluble	soluble	COC(=O)C(N)C(N)C(=O)OC (stereo not shown) [Example 1]	–	–	–
